Experimental data: patent publication US20090175882A1, “METHODS AND COMPOSITIONS FOR TREATING HYPERALGESIA” (IRM LLC, priority 2006, published 2009)
Entries after “also recorded” stand apart in the source; their conditions may differ.

Tests used:
[1] = test system: BK-induced nociceptive mechanical behaviours; assay: Bradykinin-induced mechanical hyperalgesia (Von Frey threshold); type: in vivo; settings: short term hyperalgesia model, 1 mM coinjected, mice
mouse TRPA1 = biological target: T1, mouse TRPA1 (Mus musculus, UniProt Q8BLA8); assay: Whole-cell electrophysiology of TRPA1-expressing CHO cells (pressure, hyperosmolarity, cold); type: cell-based; settings: data not shown
T1 construct: expressed in transfected cells; host or cells: CHO cells (tetracycline-induced for PatchXpress; mTRPA1-pcDNA5 named for the transient labelling experiment)
T1 sequence (Q8BLA8 whole entry): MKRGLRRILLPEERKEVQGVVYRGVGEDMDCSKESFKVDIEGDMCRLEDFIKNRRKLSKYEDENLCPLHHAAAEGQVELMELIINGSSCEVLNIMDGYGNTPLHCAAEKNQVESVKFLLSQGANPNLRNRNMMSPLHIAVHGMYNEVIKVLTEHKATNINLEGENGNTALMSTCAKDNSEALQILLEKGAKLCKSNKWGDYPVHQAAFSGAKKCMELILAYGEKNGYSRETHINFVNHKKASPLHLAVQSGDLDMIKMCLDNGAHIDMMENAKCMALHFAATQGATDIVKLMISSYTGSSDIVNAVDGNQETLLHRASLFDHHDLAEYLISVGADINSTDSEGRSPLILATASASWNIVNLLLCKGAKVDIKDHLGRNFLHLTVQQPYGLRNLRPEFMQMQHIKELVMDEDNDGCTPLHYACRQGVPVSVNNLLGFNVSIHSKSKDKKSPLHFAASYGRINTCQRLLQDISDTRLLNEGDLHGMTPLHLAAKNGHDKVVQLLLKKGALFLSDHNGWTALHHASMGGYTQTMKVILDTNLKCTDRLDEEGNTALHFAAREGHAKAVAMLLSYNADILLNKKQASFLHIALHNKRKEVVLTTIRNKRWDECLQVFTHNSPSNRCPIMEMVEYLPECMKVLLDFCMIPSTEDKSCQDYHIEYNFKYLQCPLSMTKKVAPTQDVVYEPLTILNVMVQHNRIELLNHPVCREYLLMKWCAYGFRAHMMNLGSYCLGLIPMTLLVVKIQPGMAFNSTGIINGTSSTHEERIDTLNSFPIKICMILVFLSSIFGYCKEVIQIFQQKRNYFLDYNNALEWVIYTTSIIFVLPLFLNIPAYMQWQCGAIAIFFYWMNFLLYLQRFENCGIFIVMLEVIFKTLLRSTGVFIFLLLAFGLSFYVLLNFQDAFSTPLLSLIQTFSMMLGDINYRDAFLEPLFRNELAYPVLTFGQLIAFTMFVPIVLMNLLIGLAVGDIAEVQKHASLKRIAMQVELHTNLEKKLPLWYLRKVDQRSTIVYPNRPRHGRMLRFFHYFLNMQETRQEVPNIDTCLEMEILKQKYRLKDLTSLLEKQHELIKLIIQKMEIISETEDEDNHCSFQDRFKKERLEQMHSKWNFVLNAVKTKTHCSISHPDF
Source text: We tested if TRPA1 is activated by mechanical forces. The electrophysiological behavior of thermoTRP-expressing Chinese Hamster Ovary (CHO) cells was investigated with two different assays of mechanical stress—pressure application using the recording pipette and changes in external osmolarity.
Mechanosensory neurons are often classified as high- or low-threshold, characterizing responses to pain and touch, respectively. We tested the mechanical threshold of TRPA1 by applying a wide range of negative pipette pressures (FIG. 1C). TRPA1-expressing CHO cells are activated at −90 mmHg or higher, consistent with native high-threshold mechanical receptors involved in sensing pain (Cho et al., J Neurosci 22:1238, 2002). […] Gadolinium (Gd^3+) is considered a blocker of native mechanically-gated ion channels in animal tissues (Martinac et al., Physiol Rev 81:685, 2001). […] FM1-43 is a styryl dye that specifically labels sensory cells by entering through open transduction channels. […] Furthermore, it was observed that 10 μM of FM1 -43 was able to block cinnamaldehyde-induced currents in TRPA1-expressing CHO cells (n=8).
To ensure that the mechanical response we observe is not an artifact of heterologous expression system, we tested if native TRPA1-expressing neurons also respond to such stimuli. 5/6 cinnamaldehyde-sensitive (presumptive TRPA1-expressing) DRG neurons responded to an application of −200 mmHg of suction, while 0/21 cinnamaldehyde insensitive neurons responded (16 of 21 were capsaicin-sensitive) (FIG. 2B). Millimolar camphor was recently reported to inhibit basal currents and cold or agonist-activation of TRPA1.
Mammalian cell electrophysiology: ThermoTRP-expressing CHO cells (rat TRPV1, rat TRPV2, mouse TRPV3, rat TRPV4, mouse TRPM8, and mouse TRPA1), control CHO cells, and cultured rat DRG neurons were prepared as described in Story et al., Cell 112:819, 2003; and Bandell et al., Neuron 41:849, 2004. Electrophysiological recordings were performed as described in Bandell et al., Neuron 41:849, 2004. Briefly, CHO cells were clamped at −60 mV and 0.8 second ramps from −80 mV to +80 mV were run every 4 seconds. Currents from DRG neurons were recorded at −60 mV and for their current-voltage curve, 300 ms voltage step at +20 mV was used 40 ms before 800 ms ramp from -80 mV to +80 mV to minimize contamination of voltage gated Na^+ or Ca^2+ current. The pipette solution for temperature and hyperosmotic experiments consisted of (in mM) 140 CsCl, 5 EGTA, 10 HEPES, 2 MgATP, 0.2 NaGTP, titrated to pH 7.4 with CsOH. The base external solution for these experiments consisted of (in mM) 140 NaCl, 5KCl, 10 HEPES, 2CaCl2, 1MgCl2, titrated to pH 7.4 with NaOH. Mannitol was used to adjust osmolarity for hypertonic solutions. For mouse TRPV3 and rat TRPV2, external calcium was replaced with 5 mM EGTA. Gluconate was substituted for chloride in (±)-pressure and hypotonic experiments to eliminate the potential for endogenous swelling-activated chloride currents. For these experiments, pipette solution (295 mOsm) consisted of (in mM) 125 Cs-gluconate, 15CsCl, 5 EGTA, 10 HEPES, 2 MgATP, 0.2NaGTP, titrated to pH 7.4 with CsOH. The external solution consisted of (in mM) 90 Na-gluconate, 10 NaCl, 5 K-gluconate, 10 HEPES, 2 CaCl2, 1 MgCl2, titrated to pH 7.4 with NaOH. Osmolarity was adjusted with mannitol to 220 mOsm (hypotonic) or 298 mOsm 15 (isotonic). (±)-Pressure was hydrostatically delivered by the recording pipette using syringe pumping (Hamill et al., Annu Rev Physiol 59:621, 1997) and monitored through Pressure Monitor (World Precision Instruments). Warner temperature controller (TC-324B and CL-100) was used for the heating or cooling the perfused bath solutions. […] The number of cells (n) tested with -100 mmHg to −300 mmHg, ˜+100 mmHg, 450 mOsm, and 220 mOsm for each cell type, respectively, are: CHO cells, n=7, 14, 5, 12; TRPV1, n=6, 5, 7, 5; TRPV2, n=4, 5, 3, 5; TRPV3, n=3, 2, 3, 0; TRPM8, n=12, 4, 10, 0. […]

TRPM8 = biological target: T2, TRPM8 (Mus musculus, UniProt Q8R4D5); assay: ThermoTRP selectivity test; type: cell-based; settings: at 50 μM (data not shown)
T2 construct: expressed in transfected cells; not restated for the selectivity test
T2 sequence (Q8R4D5 whole entry): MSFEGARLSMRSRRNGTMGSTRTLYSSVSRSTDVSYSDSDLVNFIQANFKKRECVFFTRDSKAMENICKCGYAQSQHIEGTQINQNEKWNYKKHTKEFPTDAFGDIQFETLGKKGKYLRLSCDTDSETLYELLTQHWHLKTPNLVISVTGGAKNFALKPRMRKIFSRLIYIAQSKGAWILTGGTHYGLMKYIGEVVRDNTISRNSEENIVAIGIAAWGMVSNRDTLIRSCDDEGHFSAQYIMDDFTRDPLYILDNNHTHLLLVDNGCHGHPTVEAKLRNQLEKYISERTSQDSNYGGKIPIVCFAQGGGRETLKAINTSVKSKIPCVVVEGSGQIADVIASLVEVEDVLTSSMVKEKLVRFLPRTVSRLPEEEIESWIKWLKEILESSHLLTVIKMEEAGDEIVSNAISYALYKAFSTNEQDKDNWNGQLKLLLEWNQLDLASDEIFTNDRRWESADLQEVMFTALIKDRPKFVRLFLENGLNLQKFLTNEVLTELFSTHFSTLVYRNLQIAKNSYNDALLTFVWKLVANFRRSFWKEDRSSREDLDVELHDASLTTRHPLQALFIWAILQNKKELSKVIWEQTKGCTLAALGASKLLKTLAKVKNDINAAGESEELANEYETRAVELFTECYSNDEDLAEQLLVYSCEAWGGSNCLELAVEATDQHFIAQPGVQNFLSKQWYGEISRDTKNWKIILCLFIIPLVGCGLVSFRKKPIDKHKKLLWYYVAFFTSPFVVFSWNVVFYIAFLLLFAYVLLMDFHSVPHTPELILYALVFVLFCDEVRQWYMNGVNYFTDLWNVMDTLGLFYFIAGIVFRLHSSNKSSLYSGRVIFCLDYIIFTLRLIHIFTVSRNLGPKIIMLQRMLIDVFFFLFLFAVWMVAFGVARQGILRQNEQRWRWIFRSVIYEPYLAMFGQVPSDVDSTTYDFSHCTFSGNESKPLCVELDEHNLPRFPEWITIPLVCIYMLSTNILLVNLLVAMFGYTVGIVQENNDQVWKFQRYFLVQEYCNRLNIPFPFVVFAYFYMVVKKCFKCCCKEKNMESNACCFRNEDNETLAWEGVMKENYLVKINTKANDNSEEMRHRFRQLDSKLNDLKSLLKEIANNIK

[2] = test system: CFA-induced cold hyperalgesia; assay: CFA-induced cold hyperalgesia on a 5° C. plate; type: in vivo; settings: rats
TRPV4 = biological target: T3, TRPV4 (Rattus norvegicus, UniProt Q9ERZ8); assay: ThermoTRP selectivity test; type: cell-based; settings: at 50 μM (data not shown)
T3 construct: expressed in transfected cells; not restated for the selectivity test
T3 sequence (Q9ERZ8 whole entry): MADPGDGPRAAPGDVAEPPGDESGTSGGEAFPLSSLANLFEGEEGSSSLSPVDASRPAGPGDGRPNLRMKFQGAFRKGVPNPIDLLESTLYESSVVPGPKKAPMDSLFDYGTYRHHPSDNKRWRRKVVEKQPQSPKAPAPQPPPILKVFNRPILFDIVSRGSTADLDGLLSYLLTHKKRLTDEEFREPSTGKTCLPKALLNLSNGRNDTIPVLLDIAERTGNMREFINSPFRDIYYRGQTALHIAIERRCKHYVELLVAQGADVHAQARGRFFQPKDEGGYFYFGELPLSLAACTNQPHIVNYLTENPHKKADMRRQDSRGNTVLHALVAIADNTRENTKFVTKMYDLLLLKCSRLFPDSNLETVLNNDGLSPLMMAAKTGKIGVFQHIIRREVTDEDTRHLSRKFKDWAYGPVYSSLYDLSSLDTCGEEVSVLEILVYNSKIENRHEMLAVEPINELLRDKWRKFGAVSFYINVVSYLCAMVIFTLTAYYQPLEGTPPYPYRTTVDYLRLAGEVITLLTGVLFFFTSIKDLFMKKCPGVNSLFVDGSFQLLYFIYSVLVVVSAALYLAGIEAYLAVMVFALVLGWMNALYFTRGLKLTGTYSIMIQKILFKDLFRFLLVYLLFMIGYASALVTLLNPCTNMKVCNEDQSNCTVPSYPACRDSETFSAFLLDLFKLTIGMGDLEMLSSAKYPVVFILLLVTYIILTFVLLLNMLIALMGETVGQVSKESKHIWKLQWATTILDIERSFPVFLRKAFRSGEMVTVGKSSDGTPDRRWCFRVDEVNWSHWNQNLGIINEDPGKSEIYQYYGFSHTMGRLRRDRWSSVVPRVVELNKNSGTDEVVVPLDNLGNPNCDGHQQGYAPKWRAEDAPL

[3] = Behavioral response to the compound alone in hindpaw; type: in vivo; settings: 1-10 mM in hindpaw of mice (data not shown)

block of TRPA1 responses in CHO cells induced by cold (mouse TRPA1): blocked
block of TRPA1 responses in CHO cells induced by pressure (mouse TRPA1): blocked
block of TRPM8 (TRPM8): did not block
block of TRPV4 (TRPV4): did not block
behavioral response to the compound alone [3]: did not cause any behavioral response
Structure (SMILES): CC(=Cc1ccc(Cl)cc1)C(C)=NO [Compound 18, (Z)-4-(4-chlorophynyl)-3-methylbut-3-en-2-oxime]
BK-induced mechanical nociceptive behavior [1]: reverses
CFA-induced cold hyperalgesia (flicks, licks, paw raises for 10 min) [2]: reverses cold behaviours; also recorded: robust block
